Test results as given in article PMC5742231 (Frontiers in Chemistry, 2017).

Legend:
[1] = system: Bacteriophage ΔTOX:GFP (ϕΔTOX:GFP); assay type: cell-based
S. aureus = settings: cited from earlier work
[2] = system: different bacterial strains; settings: cited from earlier work

Sequence	bacteriophage inactivation activity (in words) [1]	phages inactivated [1]	also measured
GLLKKWLKKWKEFKRIVGY [Peptide 2]	lowest inactivation activity	–	shape of phage neutralizing activity vs. concentration curve [1]: bell curve shaped behavior
GLLRKWGKKWKEFLRRVWK [Peptide 6.2]	–	~100%	shape of phage neutralizing activity vs. concentration curve [1]: bell curve shaped behavior
ILRWPWWPWRRK [Omiganan, reference compound]	no inactivation activity	–	antimicrobial activity against S. aureus (S. aureus): activity against S. aureus
MVVFSVPKFKSTVAKLLSSA [Random peptide, reference compound]	no inactivation activity	–	antimicrobial activity [2]: no antimicrobial activity
RIVQRIAKWAKKWYKAGK [Peptide 8.1]	lowest inactivation activity	–	–
RIVQRIKKWLLKWKKLGY [Peptide 5]	–	~100%	–
RIVQRILKWLKKWYKLGK [Peptide 8]	–	~100%	–
